Tests used:
[1] = xn = mol fraction of the nth substance listed; settings: 101 kPa, Liquid, Vibrating tube method
[2] = refractive index (Na D-line) (dimensionless); xn = mol fraction of the nth substance listed; settings: 101 kPa, Liquid, Standard Abbe refractometry

C1COCCO1 [1,4-dioxane] + CCCCn1cc[n+](C)c1.F[B-](F)(F)F
Settings | mass density, [1] [kg/m3] | refractive index, [2]
293.15 K, x2 = 0 | 1033.57 | –
293.15 K, x2 = 0.2559 | 1118.75 | –
293.15 K, x2 = 0.3956 | 1146.31 | –
293.15 K, x2 = 0.4988 | 1161.37 | –
293.15 K, x2 = 0.6 | 1173.1 | –
293.15 K, x2 = 0.7021 | 1183.04 | –
293.15 K, x2 = 0.8993 | 1198.09 | –
298.15 K, x2 = 0 | 1027.92 | 1.4205
298.15 K, x2 = 0.2559 | 1114.31 | 1.4253
298.15 K, x2 = 0.3956 | 1142.23 | 1.4258
298.15 K, x2 = 0.4988 | 1157.44 | 1.4256
298.15 K, x2 = 0.6 | 1169.26 | 1.4249
298.15 K, x2 = 0.7021 | 1179.3 | 1.4241
298.15 K, x2 = 0.8993 | 1194.53 | 1.4222
303.15 K, x2 = 0 | 1022.27 | 1.4171
303.15 K, x2 = 0.2559 | 1109.87 | 1.4236
303.15 K, x2 = 0.3956 | 1138.14 | 1.4244
303.15 K, x2 = 0.4988 | 1153.51 | 1.4242
303.15 K, x2 = 0.6 | 1165.45 | 1.4235
303.15 K, x2 = 0.7021 | 1175.57 | 1.4225
303.15 K, x2 = 0.8993 | 1190.95 | 1.4207
313.15 K, x2 = 0 | 1010.91 | 1.4112
313.15 K, x2 = 0.2559 | 1101.06 | 1.4196
313.15 K, x2 = 0.3956 | 1130.01 | 1.421
313.15 K, x2 = 0.4988 | 1145.69 | 1.4211
313.15 K, x2 = 0.6 | 1157.84 | 1.4206
313.15 K, x2 = 0.7021 | 1168.15 | 1.4199
313.15 K, x2 = 0.8993 | 1183.8 | 1.4183
323.15 K, x2 = 0 | 999.49 | 1.4063
323.15 K, x2 = 0.2559 | 1092.28 | 1.4161
323.15 K, x2 = 0.3956 | 1121.91 | 1.4179
323.15 K, x2 = 0.4988 | 1137.92 | 1.4181
323.15 K, x2 = 0.6 | 1150.29 | 1.4177
323.15 K, x2 = 0.7021 | 1160.77 | 1.4169
323.15 K, x2 = 0.8993 | 1176.68 | 1.4155
333.15 K, x2 = 0 | 987.97 | –
333.15 K, x2 = 0.2559 | 1083.47 | –
333.15 K, x2 = 0.3956 | 1113.85 | –
333.15 K, x2 = 0.4988 | 1130.18 | –
333.15 K, x2 = 0.6 | 1142.79 | –
333.15 K, x2 = 0.7021 | 1153.44 | –
333.15 K, x2 = 0.8993 | 1169.6 | –
343.15 K, x2 = 0 | 976.37 | –
343.15 K, x2 = 0.2559 | 1074.65 | –
343.15 K, x2 = 0.3956 | 1105.8 | –
343.15 K, x2 = 0.4988 | 1122.47 | –
343.15 K, x2 = 0.6 | 1135.31 | –
343.15 K, x2 = 0.7021 | 1146.14 | –
343.15 K, x2 = 0.8993 | 1162.53 | –
353.15 K, x2 = 0 | 964.63 | –
353.15 K, x2 = 0.2559 | 1065.8 | –
353.15 K, x2 = 0.3956 | 1097.77 | –
353.15 K, x2 = 0.4988 | 1114.8 | –
353.15 K, x2 = 0.6 | 1127.87 | –
353.15 K, x2 = 0.7021 | 1138.89 | –
353.15 K, x2 = 0.8993 | 1155.57 | –

CCn1cc[n+](C)c1.F[B-](F)(F)F [1-ethyl-3-methylimidazolium tetrafluoroborate] + OCCO
Settings | mass density, [1] [kg/m3] | refractive index, [2]
293.15 K, x1 = 0.1249 | 1161.63 | –
293.15 K, x1 = 0.2084 | 1184.1 | –
293.15 K, x1 = 0.3046 | 1205.75 | –
293.15 K, x1 = 0.4124 | 1224.93 | –
293.15 K, x1 = 0.4763 | 1234.72 | –
293.15 K, x1 = 0.5565 | 1245.69 | –
293.15 K, x1 = 0.717 | 1264.34 | –
293.15 K, x1 = 0.7826 | 1271.14 | –
293.15 K, x1 = 0.901 | 1282.2 | –
293.15 K, x1 = 1 | 1290.63 | –
298.15 K, x1 = 0.1249 | 1157.85 | 1.4239
298.15 K, x1 = 0.2084 | 1180.23 | 1.4206
298.15 K, x1 = 0.3046 | 1201.79 | 1.4176
298.15 K, x1 = 0.4124 | 1220.94 | 1.4151
298.15 K, x1 = 0.4763 | 1230.74 | 1.414
298.15 K, x1 = 0.5565 | 1241.72 | 1.413
298.15 K, x1 = 0.717 | 1260.43 | 1.412
298.15 K, x1 = 0.7826 | 1267.25 | 1.4118
298.15 K, x1 = 0.901 | 1278.35 | 1.4115
298.15 K, x1 = 1 | 1286.82 | 1.4111
303.15 K, x1 = 0.1249 | 1154.08 | 1.4224
303.15 K, x1 = 0.2084 | 1176.36 | 1.4192
303.15 K, x1 = 0.3046 | 1197.84 | 1.4163
303.15 K, x1 = 0.4124 | 1216.96 | 1.4138
303.15 K, x1 = 0.4763 | 1226.77 | 1.4127
303.15 K, x1 = 0.5565 | 1237.77 | 1.4117
303.15 K, x1 = 0.717 | 1256.53 | 1.4105
303.15 K, x1 = 0.7826 | 1263.37 | 1.4103
303.15 K, x1 = 0.901 | 1274.51 | 1.4101
303.15 K, x1 = 1 | 1283.02 | 1.41
313.15 K, x1 = 0.1249 | 1146.54 | 1.4199
313.15 K, x1 = 0.2084 | 1168.63 | 1.4167
313.15 K, x1 = 0.3046 | 1189.98 | 1.4136
313.15 K, x1 = 0.4124 | 1209.07 | 1.411
313.15 K, x1 = 0.4763 | 1218.9 | 1.4099
313.15 K, x1 = 0.5565 | 1229.92 | 1.4089
313.15 K, x1 = 0.717 | 1248.81 | 1.4079
313.15 K, x1 = 0.7826 | 1255.69 | 1.4077
313.15 K, x1 = 0.901 | 1266.9 | 1.4076
313.15 K, x1 = 1 | 1275.45 | 1.4073
323.15 K, x1 = 0.1249 | 1138.98 | 1.4174
323.15 K, x1 = 0.2084 | 1160.91 | 1.4142
323.15 K, x1 = 0.3046 | 1182.17 | 1.4111
323.15 K, x1 = 0.4124 | 1201.24 | 1.4085
323.15 K, x1 = 0.4763 | 1211.09 | 1.4074
323.15 K, x1 = 0.5565 | 1222.17 | 1.4064
323.15 K, x1 = 0.717 | 1241.18 | 1.4054
323.15 K, x1 = 0.7826 | 1248.09 | 1.4054
323.15 K, x1 = 0.901 | 1259.36 | 1.4053
323.15 K, x1 = 1 | 1267.97 | 1.4051
333.15 K, x1 = 0.1249 | 1131.39 | –
333.15 K, x1 = 0.2084 | 1153.19 | –
333.15 K, x1 = 0.3046 | 1174.39 | –
333.15 K, x1 = 0.4124 | 1193.47 | –
333.15 K, x1 = 0.4763 | 1203.36 | –
333.15 K, x1 = 0.5565 | 1214.49 | –
333.15 K, x1 = 0.717 | 1233.6 | –
333.15 K, x1 = 0.7826 | 1240.56 | –
333.15 K, x1 = 0.901 | 1251.89 | –
333.15 K, x1 = 1 | 1260.55 | –
343.15 K, x1 = 0.1249 | 1123.78 | –
343.15 K, x1 = 0.2084 | 1145.48 | –
343.15 K, x1 = 0.3046 | 1166.65 | –
343.15 K, x1 = 0.4124 | 1185.76 | –
343.15 K, x1 = 0.4763 | 1195.68 | –
343.15 K, x1 = 0.5565 | 1206.88 | –
343.15 K, x1 = 0.717 | 1226.11 | –
343.15 K, x1 = 0.7826 | 1233.11 | –
343.15 K, x1 = 0.901 | 1244.49 | –
343.15 K, x1 = 1 | 1253.18 | –
353.15 K, x1 = 0.1249 | 1116.15 | –
353.15 K, x1 = 0.2084 | 1137.77 | –
353.15 K, x1 = 0.3046 | 1158.94 | –
353.15 K, x1 = 0.4124 | 1178.1 | –
353.15 K, x1 = 0.4763 | 1188.07 | –
353.15 K, x1 = 0.5565 | 1199.33 | –
353.15 K, x1 = 0.717 | 1218.68 | –
353.15 K, x1 = 0.7826 | 1225.73 | –
353.15 K, x1 = 0.901 | 1237.16 | –
353.15 K, x1 = 1 | 1245.87 | –

Reference: the NIST ThermoML archive (doi:10.1021/je400659p)
